System: U937 human lymphoma cells
Experiment: Cell cycle analysis (PI, flow cytometry)
Format: cell-based
Conditions: 24 h
Protocol: U937 human lymphoma cells (5 × 10^5/mL per well) were plated in 6-well culture plates and allowed to grow for 24 h. In our first experiment, we examined the effects of 4f, 4h, 4n, 4o, 4p, and PAC-1 on cell cycles at 50 µM. In the second experiment, we examined the dose-dependent effect of 4o at 5, 10, and 30 µM and PAC-1 at 30 µM on cell cycles. The cells were treated with compounds for 24 h, and then harvested. The harvested cells were washed twice with ice-cold PBS, fixed in 75% ice-cold ethanol, and stained with propidium iodide (PI) in the presence of RNase at room temperature for 30 min. The stained cells were analyzed for DNA content using a FACScalibur flow cytometer (BD Biosciences, San Jose, CA, USA) and the data were processed using Cell Quest Pro software (BD Biosciences).
(§1) Figure 3 Cell cycle analysis after treatment with some compounds. U937 human lymphoma cells were treated with compounds (50 µM) for 24 h. The harvested cells were stained with propidium iodide (PI) in the presence of RNase and then were analyzed for DNA content by using flow cytometry. Ten thousand cells were acquired (n = 3). UN untreated, VH vehicle (DMSO. 0.1%). Representative histograms (A) and bar graphs (B) are shown. p values were calculated using one-way ANOVA in GraphPad Software (San Diego, CA, USA). *p < 0.01 vs VH control.
as §1, with “Figure 4” for “Figure 3”, “analysis under” for “analysis after”, “with different concentrations of compound 4o.” for “with some compounds.”, “with compound 4o at 5, 10 and 30 µM or PAC-1 (30” for “with compounds (50”

Structure (SMILES): COc1ccc(/C=N/NC(=O)CN2C(=O)Cc3cc(F)ccc32)c(O)c1 [Compound 4o, (E)-N'-(2-Hydroxy-4-methoxybenzylidene)-2-(5-fluoro-2-oxoindolin-1-yl)acetohydrazide]
- Effect on cell cycle, dose dependence (5 µM): inhibited cell cycles
- Effect on cell cycle distribution (50 µM): accumulated U937 cells in the S phase

Source: publication PMC8861050, “Design, synthesis and evaluation of novel 2-oxoindoline-based acetohydrazides as antitumor agents” (Scientific Reports, 2022)
